Data as given in US11078168B2, “Substituted N-hydroxyamidinoheterocycles as modulators of indoleamine 2,3-dioxygenase” (PHENEX DISCOVERY VERWALTUNGS-GMBH, priority 2016, dated 2021).

Each molecule was assayed against T1, Indoleamine 2,3-dioxygenase (Homo sapiens, UniProt P14902) (assay: SKOV-3 cellular Indoleamine 2,3-dioxygenase assay). Settings: SKOV-3 cells, 50 ng/ml Interferon gamma, 100 μM L-Tryptophan, 24 hours, N-Formylkynurenin fluorescence detection; read-out: cell based activity.
T1 construct: endogenous in cells; host or cells: SKOV-3 (ATCC HTB-77), stimulated with interferon gamma
T1 sequence (P14902 whole entry): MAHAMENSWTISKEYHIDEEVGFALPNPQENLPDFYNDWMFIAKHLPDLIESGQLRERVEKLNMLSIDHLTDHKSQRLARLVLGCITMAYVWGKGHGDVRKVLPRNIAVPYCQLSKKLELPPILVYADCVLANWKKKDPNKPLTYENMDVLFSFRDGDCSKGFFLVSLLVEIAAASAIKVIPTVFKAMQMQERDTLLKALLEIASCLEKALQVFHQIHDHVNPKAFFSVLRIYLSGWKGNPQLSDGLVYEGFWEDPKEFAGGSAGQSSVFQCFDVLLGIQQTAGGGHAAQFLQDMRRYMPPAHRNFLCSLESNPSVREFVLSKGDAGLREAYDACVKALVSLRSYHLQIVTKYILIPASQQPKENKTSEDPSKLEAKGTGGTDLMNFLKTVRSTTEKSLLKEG
Experimental: SKOV-3 cellular Indoleamine 2,3-dioxygenase assay
SKOV-3 cells were obtained from the American Type Culture Collection (ATCC® HTB-77™) and maintained in McCoy's medium (Pan Biotech) supplemented with 10% fetal bovine serum and 1% Penicilin/Streptomycin. Cells were kept at 37° C. in a humidified incubator with 5% CO2. For assay preparation, cells were seeded at a density of 2*10^5/ml into black clear bottom 96 well plates in 100 μl medium/well supplemented with 50 ng/ml Interferon gamma (eBioscience, Thermo Fisher Scientific). After cells fully adhered to the plate, dilution series of compounds were added in medium containing additional L-Tryptophan to a final L-Tryptophan concentration of 100 μM. The cells were incubated for 24 hours. Detection of produced N-Formylkynurenin was performed by addition of 3-Methylpiperidine to a final concentration of 200 mM. The plates were sealed and heated to 65° C. for 20 minutes in a water bath. After cooling the fluorescence of each well was recorded with a Victor™X4 (PerkinElmer) plate reader at an emission wavelength of 535 nm and excitation at 405 nm (Tomek et al.; Anal Bioanal Chem (2013) 405:2515-2524., Tomek et al.; Biochim Biophys Acta. 2015 September; 1850(9):1772-80).

| Structure (SMILES) | IC50 |
| --- | --- |
| CC(C)(C)OC(=O)NC1(C(=O)NCCOc2nonc2C(=NO)Nc2ccc(F)c(Cl)c2)COC1 [9/16] | 100 to 1000 nM |
| CNC(=O)C(=O)NCCOc1nonc1C(=NO)Nc1ccc(F)c(Cl)c1 [9/17] | 100 to 1000 nM |
| CC(C)(C)OC(=O)NC1(C(=O)NCCOc2nonc2C(=NO)Nc2ccc(F)c(Cl)c2)CC1(F)F (stereo not drawn) [9/18] | > 1000 nM |
| CN(C)C(=O)C(=O)NCCOc1nonc1C(=NO)Nc1ccc(F)c(Cl)c1 [9/19] | 100 to 1000 nM |
| NS(=O)(=O)CC(=O)NCCOc1nonc1C(=NO)Nc1cccc(C(F)(F)F)c1 [9/20] | 100 to 1000 nM |
| NS(=O)(=O)CC(=O)NCCOc1nonc1C(=NO)Nc1ccc(F)c(C(F)(F)F)c1 [9/21] | < 100 nM |
| CN(CCOc1nonc1C(=NO)Nc1ccc(F)c(Cl)c1)C(=O)CS(N)(=O)=O [9/22] | 100 to 1000 nM |
| CN1CCN(CCOc2nonc2C(=NO)Nc2ccc(F)c(Cl)c2)CC1 [10/1, N-(3-Chloro-4-fluorophenyl)-N′-hydroxy-4-(2-(4-methylpiperazin-1-yl)ethoxy)-1,2,5-oxadiazole-3-carboximidamide] | 100 to 1000 nM |
| CS(=O)(=O)CCCOc1nonc1C(=NO)Nc1ccc(F)c(Cl)c1 [20/1, N-(3-Chloro-4-fluorophenyl)-N′-hydroxy-4-(3-(methylsulfonyl)propoxy)-1,2,5-oxadiazole-3-carboximidamide] | 100 to 1000 nM |
| CS(=O)(=O)CCS(=O)(=O)NCCSc1nonc1C(=NO)Nc1ccc(F)c(C(F)F)c1 [100/1, N-(3-(Difluoromethyl)-4-fluorophenyl)-N′-hydroxy-4-((2-((2-(methylsulfonyl)ethyl)sulfonamido)ethyl)thio)-1,2,5-oxadiazole-3-carboximidamide] | < 100 nM |
| NS(=O)(=O)NCCSc1nonc1C(=NO)Nc1ccc(F)c(Cl)c1 [101/1, N-(3-Chloro-4-fluorophenyl)-N′-hydroxy-4-((2-(sulfamoylamino)ethyl)thio)-1,2,5-oxadiazole-3-carboximidamide] | < 100 nM |
| Nc1c(NCCSc2nonc2C(=NO)Nc2cccc(C(F)F)c2)c(=O)c1=O [102/1] | < 100 nM |
| Nc1c(NCCSc2nsnc2C(=NO)Nc2ccc(F)c(Cl)c2)c(=O)c1=O [102/2] | 100 to 1000 nM |
| CC(C)(O)C(O)C(=O)NCCSc1nonc1C(=NO)Nc1ccc(F)c(C(F)F)c1 (stereo not drawn) [107/1] | < 100 nM |
| NS(=O)(=O)CC(=O)NCCSc1nonc1C(=NO)Nc1cc(F)cc(C(F)F)c1 [107/2] | < 100 nM |
| N#Cc1cc(N/C(=N\O)c2nonc2SCCNC(=O)CS(N)(=O)=O)ccc1F [107/3] | < 100 nM |
| NS(=O)(=O)CC(=O)NCCSc1nonc1/C(=N/O)Nc1cccc(Br)c1 [107/4] | < 100 nM |
| NS(=O)(=O)CC(=O)NCCSc1nonc1/C(=N/O)Nc1cccc(Cl)c1 [107/5] | < 100 nM |
| CC(C)(O)C(=O)NCCSc1nonc1C(=NO)Nc1ccc(F)c(C(F)F)c1 [107/6] | < 100 nM |
| O=C(NCCSc1nonc1C(=NO)Nc1ccc(F)c(C(F)F)c1)C1(O)CCC1 [107/7] | < 100 nM |
| O=C(NCCSc1nonc1/C(=N/O)Nc1ccc(F)c(C(F)F)c1)C1CS(=O)(=O)C1 [107/8] | < 100 nM |
| Cc1cccc(NC(=NO)c2nonc2SCCNC(=O)CS(N)(=O)=O)c1 [107/10] | < 100 nM |
| NS(=O)(=O)CC(=O)NCCSc1nonc1C(=NO)Nc1cccc(CF)c1 [107/11] | < 100 nM |
| N#Cc1cccc(N/C(=N\O)c2nonc2SCCNC(=O)CS(N)(=O)=O)c1 [107/12] | < 100 nM |
| N#Cc1cccc(NC(=NO)c2nonc2SCCNC(=O)CCS(N)(=O)=O)c1 [107/13] | < 100 nM |
| NS(=O)(=O)CC(=O)NCCSc1nonc1/C(=N/O)Nc1ccc(F)c(Br)c1 [107/14] | < 100 nM |
| NS(=O)(=O)CCC(=O)NCCSc1nonc1C(=NO)Nc1cccc(Cl)c1 [107/15] | < 100 nM |
| CC(C)(O)CC(=O)NCCSc1nonc1/C(=N/O)Nc1ccc(F)c(C(F)F)c1 [107/16] | < 100 nM |
| N#CCC(=O)NCCSc1nonc1/C(=N/O)Nc1ccc(F)c(C(F)F)c1 [107/17] | < 100 nM |
| O=C(CCCC[C@@H]1SC[C@@H]2NC(=O)N[C@@H]21)NCCSc1nonc1C(=NO)Nc1ccc(F)c(Cl)c1 [107/18] | < 100 nM |
